Assay results reported in patent US12018008B2, “Crystalline forms of an androgen receptor modulator” (Aragon Pharmaceuticals, Inc., priority 2012, dated 2024).

Experiments:
[1] = Storage stability at 40° C. and 75% RH (XRPD); format: physicochemical; conditions: a week
[2] = Forcing drying conditions (60° C. at <20 mm Hg); format: physicochemical; conditions: 60° C. at <20 mm Hg for 8 days
[3] = Thermodynamic aqueous solubility; format: physicochemical; conditions: water, equilibrated at 25° C. for 24 hours, HPLC
Protocol: Aqueous solubility was determined by suspending sufficient compound in water to give a maximum final concentration of ≥20 mg·ml^−1 of the parent free-form of the compound. The suspension was equilibrated at 25° C. for 24 hours then the pH was measured. The suspension was then filtered through a glass fibre C filter into a 96 well plate unless stated otherwise. The filtrate was then diluted by a factor of 101. Quantitation was by HPLC with reference to a standard solution of approximately 0.1 mg·ml^−1 in DMSO. Different volumes of the standard, diluted and undiluted sample solutions were injected. The solubility was calculated using the peak areas determined by integration of the peak found at the same retention time as the principal peak in the standard injection.
Analysis was performed on an Agilent HP1100 series system equipped with a diode array detector and using ChemStation software vB.02.01-SR1.

[4] = Storage stability at 25° C. and 92% RH (XRPD); format: physicochemical; conditions: for Solid form stability on storage: 92% RH/25° C., on glass slide, after a week
Protocol: A sample of Form E was laid on a glass slide then placed in a box maintained at 92% RH/25° C.

[5] = Gravimetric vapour sorption (GVS); format: physicochemical; conditions: for Solid form stability under the GVS conditions (XRPD after GVS): 25° C., 0-90% RH
Protocol: Sorption isotherms were obtained using a SMS DVS Intrinsic moisture sorption analyser, controlled by SMS Analysis Suite software. The sample temperature was maintained at 25° C. by the instrument controls. The humidity was controlled by mixing streams of dry and wet nitrogen, with a total flow rate of 200 ml min^−1. The relative humidity was measured by a calibrated Rotronic probe (dynamic range of 1.0-100% RH), located near the sample. The weight change, (mass relaxation) of the sample as a function of % RH was constantly monitored by the microbalance (accuracy ±0.005 mg). Typically 5-20 mg of sample was placed in a tared mesh stainless steel basket under ambient conditions. The sample was loaded and unloaded at 40% RH and 25° C. (typical room conditions). A moisture sorption isotherm was performed as outlined below (2 scans giving 1 complete cycle). The standard isotherm was performed at 25° C. at 10% RH intervals over a 0.5-90% RH range. [table] The sample was recovered after completion of the isotherm and re-analyzed by XRPD.

[6] = Stability under ambient conditions; format: physicochemical; conditions: within a month
T877A AR mutant = target: T1, T877A AR mutant (Homo sapiens, UniProt P10275, T878A); conditions: cited from earlier work
T1 sequence (P10275 1-920 T878A): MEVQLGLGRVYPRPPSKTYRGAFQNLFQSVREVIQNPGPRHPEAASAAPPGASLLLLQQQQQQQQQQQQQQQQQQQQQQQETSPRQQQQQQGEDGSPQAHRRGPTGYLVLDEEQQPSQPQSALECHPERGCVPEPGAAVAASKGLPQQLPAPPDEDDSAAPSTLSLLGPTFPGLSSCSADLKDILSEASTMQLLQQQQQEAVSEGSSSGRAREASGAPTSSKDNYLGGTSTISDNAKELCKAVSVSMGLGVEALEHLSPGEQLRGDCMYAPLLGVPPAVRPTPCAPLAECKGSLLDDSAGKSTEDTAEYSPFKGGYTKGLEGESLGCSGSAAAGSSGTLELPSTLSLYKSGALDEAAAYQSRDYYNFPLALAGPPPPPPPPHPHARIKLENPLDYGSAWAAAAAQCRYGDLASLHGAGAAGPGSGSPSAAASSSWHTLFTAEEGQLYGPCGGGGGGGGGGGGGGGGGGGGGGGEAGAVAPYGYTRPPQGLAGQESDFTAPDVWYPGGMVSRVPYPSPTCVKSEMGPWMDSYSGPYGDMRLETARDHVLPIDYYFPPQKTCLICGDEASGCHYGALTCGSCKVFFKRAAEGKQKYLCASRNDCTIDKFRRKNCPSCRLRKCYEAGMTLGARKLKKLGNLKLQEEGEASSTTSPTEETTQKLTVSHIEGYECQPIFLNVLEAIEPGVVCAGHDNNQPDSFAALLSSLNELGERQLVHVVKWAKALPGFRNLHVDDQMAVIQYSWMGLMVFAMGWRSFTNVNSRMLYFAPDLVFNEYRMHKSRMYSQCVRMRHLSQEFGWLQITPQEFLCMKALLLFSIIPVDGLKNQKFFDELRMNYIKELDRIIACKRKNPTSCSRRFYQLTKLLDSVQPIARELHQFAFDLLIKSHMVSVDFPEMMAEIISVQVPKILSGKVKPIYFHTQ

Structure (SMILES): CNC(=O)c1ccc(N2C(=S)N(c3cnc(C#N)c(C(F)(F)F)c3)C(=O)C23CCC3)cc1F [Form A, 4-[7-(6-cyano-5-trifluoromethylpyridin-3-yl)-8-oxo-6-thioxo-5,7-diazaspiro[3.4]oct-5-yl]-2-fluoro-N-methylbenzamide]
- Solid form stability on storage [1]: stable
- Behaviour under forcing conditions [2]: lost ethanol, the XRPD pattern of the material stayed the same
- Aqueous Solubility (mg/mL) [3]: about 0.01 mg/mL

Structure (SMILES): CNC(=O)c1ccc(N2C(=S)N(c3cnc(C#N)c(C(F)(F)F)c3)C(=O)C23CCC3)cc1F [Form B, 4-[7-(6-cyano-5-trifluoromethylpyridin-3-yl)-8-oxo-6-thioxo-5,7-diazaspiro[3.4]oct-5-yl]-2-fluoro-N-methylbenzamide]
- Solid form stability on storage [1]: stable
- Solid form stability on storage (XRPD before and after) ([4]; 25° C. and 92% RH for 12 days): stable
- Solid form stability under the GVS conditions (XRPD after GVS) [5]: stable
- Hygroscopicity ([5]; GVS at 25° C.): not hygroscopic
- Uptake of water ([5]; GVS isotherm at 25° C., at 90% RH): less than 0.2%
- Aqueous Solubility (mg/mL) [3]: about 0.004 mg/mL

Structure (SMILES): CNC(=O)c1ccc(N2C(=S)N(c3cnc(C#N)c(C(F)(F)F)c3)C(=O)C23CCC3)cc1F [Form C, 4-[7-(6-cyano-5-trifluoromethylpyridin-3-yl)-8-oxo-6-thioxo-5,7-diazaspiro[3.4]oct-5-yl]-2-fluoro-N-methylbenzamide]
- Solid form stability on storage [1]: stable

Structure (SMILES): CNC(=O)c1ccc(N2C(=S)N(c3cnc(C#N)c(C(F)(F)F)c3)C(=O)C23CCC3)cc1F [Form D, 4-[7-(6-cyano-5-trifluoromethylpyridin-3-yl)-8-oxo-6-thioxo-5,7-diazaspiro[3.4]oct-5-yl]-2-fluoro-N-methylbenzamide]
- Solid form stability on storage [1]: stable

Structure (SMILES): CNC(=O)c1ccc(N2C(=S)N(c3cnc(C#N)c(C(F)(F)F)c3)C(=O)C23CCC3)cc1F [Form E, 4-[7-(6-cyano-5-trifluoromethylpyridin-3-yl)-8-oxo-6-thioxo-5,7-diazaspiro[3.4]oct-5-yl]-2-fluoro-N-methylbenzamide]
- Solid form stability on storage [1]: transformed to Form A
- Solid form stability on storage [4]: transformed to Form A and a small amount of Form B
- Solid form stability under the GVS conditions (XRPD after GVS) [5]: transformed to Form A

Structure (SMILES): CNC(=O)c1ccc(N2C(=S)N(c3cnc(C#N)c(C(F)(F)F)c3)C(=O)C23CCC3)cc1F [Form F, 4-[7-(6-cyano-5-trifluoromethylpyridin-3-yl)-8-oxo-6-thioxo-5,7-diazaspiro[3.4]oct-5-yl]-2-fluoro-N-methylbenzamide]
- Solid form stability on storage [1]: transformed to Form A
- Solid form stability under ambient conditions [6]: transformed to Form A

Structure (SMILES): CNC(=O)c1ccc(N2C(=S)N(c3cnc(C#N)c(C(F)(F)F)c3)C(=O)C23CCC3)cc1F [Form G, 4-[7-(6-cyano-5-trifluoromethylpyridin-3-yl)-8-oxo-6-thioxo-5,7-diazaspiro[3.4]oct-5-yl]-2-fluoro-N-methylbenzamide]
- Solid form stability on storage [1]: stable

Structure (SMILES): CNC(=O)c1ccc(N2C(=S)N(c3cnc(C#N)c(C(F)(F)F)c3)C(=O)C23CCC3)cc1F [Form H, 4-[7-(6-cyano-5-trifluoromethylpyridin-3-yl)-8-oxo-6-thioxo-5,7-diazaspiro[3.4]oct-5-yl]-2-fluoro-N-methylbenzamide]
- Solid form stability on storage [1]: stable

Structure (SMILES): CNC(=O)c1ccc(N2C(=S)N(c3cnc(C#N)c(C(F)(F)F)c3)C(=O)C23CCC3)cc1F [Form I, 4-[7-(6-cyano-5-trifluoromethylpyridin-3-yl)-8-oxo-6-thioxo-5,7-diazaspiro[3.4]oct-5-yl]-2-fluoro-N-methylbenzamide]
- Solid form stability on storage [4]: transformed to Form B

Structure (SMILES): CNC(=O)c1ccc(N2C(=S)N(c3cnc(C#N)c(C(F)(F)F)c3)C(=O)C23CCC3)cc1F [Form J, 4-[7-(6-cyano-5-trifluoromethylpyridin-3-yl)-8-oxo-6-thioxo-5,7-diazaspiro[3.4]oct-5-yl]-2-fluoro-N-methylbenzamide]
- Solid form stability on storage [4]: transformed to Form B

Structure (SMILES): CC(C)(O)C(=O)Nc1ccc([N+](=O)[O-])c(C(F)(F)F)c1 [hydroxyflutamide]
- Activity in T877A AR mutant (T877A AR mutant): act as AR agonists
